For 23 compounds, IC50 results are on record in patent US8865698B2, “Method of treatment using substituted pyrazolo[1,5-a]pyrimidine compounds” (Array BioPharma Inc., priority 2008, dated 2014).

For the experiment, the target named is histidine-tagged recombinant human TrkA, cytoplasmic domain (Homo sapiens (Human), UniProt P04629). Kind of experiment: TrkA ELISA Assay. The following applies: 2.5 nM TrkA, 500 μM ATP, 25 minutes; read-out: TrkA Elisa Enzyme IC50. It is filed as biochemical. The method, then:
An enzyme-linked immunosorbant assay (ELISA) was used to assess TrkA kinase activity in the presence of inhibitors. Immulon 4HBX 384-well microtiter plates (Thermo part #8755) were coated with a 0.025 mg/mL solution of poly (Glu, Ala, Tyr; 6:3:1; Sigma P3899). Various concentrations of test compound, 2.5 nM TrkA (Invitrogen Corp., histidine-tagged recombinant human TrkA, cytoplasmic domain), and 500 μM ATP were incubated for 25 minutes at ambient temperature in the coated plates while shaking. The assay buffer consisted of 25 mM MOPS pH 7.5, 0.005% (v/v) Triton X-100 and 5 mM MgCl2. The reaction mixture was removed from the plate by washing with PBS containing 0.1% (v/v) Tween 20. The phosphorylated reaction product was detected using 0.2 μg/mL of a phosphotyrosine specific monoclonal antibody (clone PY20) conjugated to horseradish peroxidase in conjunction with the TMB Peroxidase Substrate System (KPL). After the addition of 1M phosphoric acid, the chromogenic substrate color intensity was quantitated via absorbance at 450 nm. IC50 values were calculated using either a 4 or 5-parameter logistic curve fit.
A general note: An ELISA detects its analyte on a solid surface through an enzyme-linked reagent.

Sequence of histidine-tagged recombinant human TrkA, cytoplasmic domain (P04629 440-796): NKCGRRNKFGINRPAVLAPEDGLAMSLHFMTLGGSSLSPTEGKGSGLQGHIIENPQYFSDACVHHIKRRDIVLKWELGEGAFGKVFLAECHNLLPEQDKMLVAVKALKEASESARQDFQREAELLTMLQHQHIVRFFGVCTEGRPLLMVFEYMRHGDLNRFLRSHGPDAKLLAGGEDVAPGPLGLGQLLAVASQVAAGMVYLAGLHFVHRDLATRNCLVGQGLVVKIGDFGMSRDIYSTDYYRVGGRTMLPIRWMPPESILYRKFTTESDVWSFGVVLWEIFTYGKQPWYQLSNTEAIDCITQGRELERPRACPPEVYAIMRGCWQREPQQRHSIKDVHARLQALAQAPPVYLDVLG

A word on the IC50: it is the concentration at which inhibition is half-maximal. As to `O=C(Nc1cnn2ccc(N3CCC[C@@H]3c3cc(F)ccc3F)nc12)N1CC(O)C1` [Example 1, (R)—N-(5-(2-(2,5-difluorophenyl)pyrrolidin-1-yl)pyrazolo[1,5-a]pyrimidin-3-yl)-3-hydroxyazetidine-1-carboxamide], the IC50 was 20.7 nM.
In the case of `CN(C)C(=O)Nc1cnn2ccc(N3CCC[C@@H]3c3cc(F)ccc3F)nc12` [Example 2, (R)-3-(5-(2-(2,5-difluorophenyl)pyrrolidin-1-yl)pyrazolo[1,5-a]pyrimidin-3-yl)-1,1-dimethylurea] it was 15.8 nM; in that of `CC(C)(C)NC(=O)Nc1cnn2ccc(N3CCC[C@@H]3c3cc(F)ccc3F)nc12` [Example 3, (R)-1-tert-butyl-3-(5-(2-(2,5-difluorophenyl)pyrrolidin-1-yl)pyrazolo[1,5-a]pyrimidin-3-yl)urea], 22.2 nM; in that of `O=C(Nc1ccccc1)Nc1cnn2ccc(N3CCC[C@@H]3c3cc(F)ccc3F)nc12` [Example 4, (R)-1-(5-(2-(2,5-difluorophenyl)pyrrolidin-1-yl)pyrazolo[1,5-a]pyrimidin-3-yl)-3-phenylurea], 5 nM.
To `CC(C)C(=O)Nc1cnn2ccc(N3CCC[C@@H]3c3cc(F)ccc3F)nc12` [Example 5, (R)—N-(5-(2-(2,5-difluorophenyl)pyrrolidin-1-yl)pyrazolo[1,5-a]pyrimidin-3-yl)isobutyramide] belongs 12.1 nM; to `Cn1nc(C(=O)Nc2cnn3ccc(N4CCC[C@@H]4c4cccc(F)c4)nc23)ccc1=O` [Example 6, (R)—N-(5-(2-(3-fluorophenyl)pyrrolidin-1-yl)pyrazolo[1,5-a]pyrimidin-3-yl)-1-methyl-6-oxo-1,6-dihydropyridazine-3-carboxamide], 19.2 nM.
For `O=C(Nc1cnn2ccc(N3CC(F)(F)C[C@@H]3c3cccc(F)c3)nc12)N1CC(O)C1` [Example 7, (R)—N-(5-(4,4-difluoro-2-(3-fluorophenyl)pyrrolidin-1-yl)pyrazolo[1,5-a]pyrimidin-3-yl)-3-hydroxyazetidine-1-carboxamide], the IC50 is 77.5 nM.
On to `O=C(Nc1cnn2ccc(N3CCC[C@@H]3c3cc(F)ccc3Cl)nc12)N1CC(O)C1` [Example 8, (R)—N-(5-(2-(2-chloro-5-fluorophenyl)pyrrolidin-1-yl)pyrazolo[1,5-a]pyrimidin-3-yl)-3-hydroxyazetidine-1-carboxamide], for which the IC50 was 13.7 nM.
Consider `O=C(Nc1cnn2ccc(N3CCC[C@@H]3c3cccc(F)c3)nc12)N1CCOCC1` [Example 9, (R)—N-(5-(2-(3-fluorophenyl)pyrrolidin-1-yl)pyrazolo[1,5-a]pyrimidin-3-yl)morpholine-4-carboxamide], for which the half-inhibitory concentration (IC50) was determined as 821 nM.
As for `CC1(c2cccc(F)c2)CCCN1c1ccn2ncc(NC(=O)N3CC(O)C3)c2n1` (centres unmarked) [Example 10, N-(5-(2-(3-fluorophenyl)-2-methylpyrrolidin-1-yl)pyrazolo[1,5-a]pyrimidin-3-yl)-3-hydroxyazetidine-1-carboxamide], the IC50 is 188 nM.
To `O=C(Nc1cnn2ccc(N3CCC[C@@H]3c3cc(F)cc(Cl)c3)nc12)N1CC(O)C1` [Example 11, (R)—N-(5-(2-(3-chloro-5-fluorophenyl)pyrrolidin-1-yl)pyrazolo[1,5-a]pyrimidin-3-yl)-3-hydroxyazetidine-1-carboxamide] belongs 171 nM; to `O=C(Nc1cnn2ccc(N3CCC[C@@H]3c3cc(F)ccc3C(F)F)nc12)N1CC(O)C1` [Example 12, (R)—N-(5-(2-(2-(difluoromethyl)-5-fluorophenyl)pyrrolidin-1-yl)pyrazolo[1,5-a]pyrimidin-3-yl)-3-hydroxyazetidine-1-carboxamide], 26.5 nM.
To `O=C(Nc1cnn2ccc(N3CCC[C@@H]3c3cc(F)ccc3F)nc12)N1CCOCC1` [Example 13, (R)—N-(5-(2-(2,5-difluorophenyl)pyrrolidin-1-yl)pyrazolo[1,5-a]pyrimidin-3-yl)morpholine-4-carboxamide] belongs 32.2 nM; to `O=C(Nc1cnn2ccc(N3CCC[C@@H]3c3cc(F)ccc3F)nc12)N1C[C@@H](O)[C@H](O)C1` [Example 15, (3R,4R)—N-(5-((R)-2-(2,5-difluorophenyl)pyrrolidin-1-yl)pyrazolo[1,5-a]pyrimidin-3-yl)-3,4-dihydroxypyrrolidine-1-carboxamide], 13.3 nM.
As to `COC1CN(C(=O)Nc2cnn3ccc(N4CCC[C@@H]4c4cc(F)ccc4F)nc23)C1` [Example 16, (R)—N-(5-(2-(2,5-difluorophenyl)pyrrolidin-1-yl)pyrazolo[1,5-a]pyrimidin-3-yl)-3-methoxyazetidine-1-carboxamide], the IC50 was 27.5 nM.
With `CC1(O)CN(C(=O)Nc2cnn3ccc(N4CCC[C@@H]4c4cc(F)ccc4F)nc23)C1` [Example 17, (R)—N-(5-(2-(2,5-difluorophenyl)pyrrolidin-1-yl)pyrazolo[1,5-a]pyrimidin-3-yl)-3-hydroxy-3-methylazetidine-1-carboxamide], the IC50 worked out at 19.7 nM.
In the case of `O=C(Nc1ccc(F)cc1)Nc1cnn2ccc(N3CCC[C@@H]3c3cc(F)ccc3F)nc12` [Example 18, (R)-1-(5-(2-(2,5-difluorophenyl)pyrrolidin-1-yl)pyrazolo[1,5-a]pyrimidin-3-yl)-3-(4-fluorophenyl)urea] it was 4.6 nM.
As for `O=C(Nc1ccc(Cl)cc1)Nc1cnn2ccc(N3CCC[C@@H]3c3cc(F)ccc3F)nc12` [Example 19, (R)-1-(4-chlorophenyl)-3-(5-(2-(2,5-difluorophenyl)pyrrolidin-1-yl)pyrazolo[1,5-a]pyrimidin-3-yl)urea], the half-inhibitory concentration (IC50) was determined as 10.1 nM.
In the case of `COc1ccc(NC(=O)Nc2cnn3ccc(N4CCC[C@@H]4c4cc(F)ccc4F)nc23)cc1` [Example 20, (R)-1-(5-(2-(2,5-difluorophenyl)pyrrolidin-1-yl)pyrazolo[1,5-a]pyrimidin-3-yl)-3-(4-methoxyphenyl)urea], the IC50 worked out at 4.8 nM.
With `COC1CN(C(=O)Nc2cnn3ccc(N4CCC[C@@H]4c4cc(F)ccc4Cl)nc23)C1` [Example 21, (R)—N-(5-(2-(2-chloro-5-fluorophenyl)pyrrolidin-1-yl)pyrazolo[1,5-a]pyrimidin-3-yl)-3-methoxyazetidine-1-carboxamide], the IC50 stood at 27.9 nM.
To `CC1(O)CN(C(=O)Nc2cnn3ccc(N4CCC[C@@H]4c4cc(F)ccc4Cl)nc23)C1` [Example 22, (R)—N-(5-(2-(2-chloro-5-fluorophenyl)pyrrolidin-1-yl)pyrazolo[1,5-a]pyrimidin-3-yl)-3-hydroxy-3-methylazetidine-1-carboxamide] belongs 11.5 nM.
In the case of `O=C(Nc1cnn2ccc(N3CCC[C@@H]3c3cc(F)ccc3Cl)nc12)N1CCOCC1` [Example 23, (R)—N-(5-(2-(2-chloro-5-fluorophenyl)pyrrolidin-1-yl)pyrazolo[1,5-a]pyrimidin-3-yl)morpholine-4-carboxamide] it was 41.7 nM; in that of `C[C@H]1CN(C(=O)Nc2cnn3ccc(N4CCC[C@@H]4c4cc(F)ccc4Cl)nc23)CCN1C(=O)OC(C)(C)C` [Example 24, (S)-tert-butyl 4-(5-((R)-2-(2-chloro-5-fluorophenyl)pyrrolidin-1-yl)pyrazolo[1,5-a]pyrimidin-3-ylcarbamoyl)-2-methylpiperazine-1-carboxylate], 55 nM.
